Patent US20230190707A1, “COMPOSITIONS AND METHODS FOR ENHANCING CANCER IMMUNOTHERAPY” (FRED HUTCHINSON CANCER CENTER, priority 2020, published 2023)

What was measured:
[1] = Histologic evaluation of immune-related tissue toxicities; assay type: in vivo, mouse; conditions: tumor-bearing mice
Experimental: Animal tissues were fixed in 4% paraformaldehyde, decalcified (for bone), dehydrated and paraffin embedded. Blocks were sectioned and stained with hematoxylin and eosin or anti-CD8. Images were acquired using an Axio Observer A1 microscope (Carl Zeiss, Oberkochen, Germany) or scanned using an Aperio AT slide scanner (Leica Biosystems, Buffalo Grove, Ill.). Automated quantification of infiltrating CD8^+ T cells was performed using HALO software (Indica labs, Albuquerque, N. Mex.). Pathologic evaluation of immune-related tissue toxicities was performed in a blinded fashion by one of the authors who is a trained pathologist (Ben Durham, MD).

[2] = system: B16-F10, MB49, MC38, and CT26; assay: RNA-seq splicing analysis, mouse tumor cell lines; assay type: cell-based; conditions: doses that did not affect tumor cell growth in vitro
Experimental: Unless otherwise specified, cell lines were treated with splicing inhibitors at the indicated concentrations for 96 hours in vitro, harvested and washed three times with PBS in excess to remove all drug, and then used for downstream analyses and/or subsequent studies, including phenotyping, RNA-seq analyses, continued growth in vitro, or tumor challenge in vivo into syngeneic animals.
Bulk lung and colon were homogenized using a Qiagen TissueRuptor. For all tissues and cell types, RNA was extracted using an RNeasy kit (Qiagen, Frederick, Md.) and quantified using a NanoDrop 8000 (ThermoFisher Scientific). A minimum of 500 ng of high-quality RNA (as determined by Agilent Bioanalyzer) per sample or replicate was used for library preparation. Poly(A)-selected, strand-specific (dUTP method) Illumina libraries were prepared with a modified TruSeq protocol and sequenced on the Illumina HiSeq 2000 (˜100M 2×101 bp paired-end reads per sample or replicate).
RNA-seq analysis was performed as previously described (Dvinge, H., et al. (2014). Sample processing obscures cancer-specific alterations in leukemic transcriptomes. Proc Natl Acad Sci USA 111, 16802-16807, incorporated herein by reference in its entirety). […] Aligned reads from these two mapping steps were merged to generate final BAM files for all subsequent analyses. […]

donor T cells = assay: CFSE adoptive T cell transfer with in vivo splicing modulator treatment; conditions: mouse, in vivo
Experimental: Splenic T cells were obtained from B6 or CD45.1 donors by CD5 positive selection (Miltenyi Biotec, Cat. 130-049-301), labeled with CellTrace CFSE (ThermoFisher Cat. C34570) at 10 μM, and adoptively transferred by tail vein injection into lethally irradiated B6, Balb/c, or LP/J recipients, with […] labeled donor T cells transferred per recipient. All recipients were irradiated on day −1 prior to adoptive T cell transfer with 7 Gy as a single fraction and continuously received splicing inhibitor drugs or vehicle control at the indicated doses, from day −1 until day of sacrifice, with the initial dose of drug at least 4 hours after lethal irradiation. Indisulam and MS-023 were solubilized for in vivo administration and animals were treated as above. Pladienolide B (Tocris, Cat. 6070) and GEX1A (Cayman Chemicals, Cat. 25136) were both dissolved in vehicle (10% ethanol and 4% Tween-80 in sterile PBS) and administered i.p., with pladienolide B dosed at 10 mg/kg every other day, and GEX1A dosed at 1.25 mg/kg every four days. For in vivo use, EPZ015666 was dissolved in DMSO and solubilized in 0.5% methylcellulose in water to 20 mg/mL; animals were treated daily with 200 mg/kg by oral gavage.

[3] = system: CD8^+ T cell proliferation; assay: Mixed leukocyte reaction with BMDCs loaded with lysates of drug-treated MC38 cells; assay type: cell-based, mouse; conditions: wild-type BMDCs loaded with lysates of treated MC38 cells; day 5
Experimental: RBC lysed bone marrow obtained from the femurs and tibias of C57BL/6 or P2 microglobulin deficient mice (Jackson Laboratories Cat. 2087) were cultured with mouse IL-3 (PeproTech Cat. 213-13) and mouse FLT3 ligand (PeproTech Cat. 250-31L) both at 10 ng/mL each in RPMI+10% FCS for 7 days to generate bone marrow derived dendritic cells. Separately, […] MC38 treated with splicing inhibitors vs. DMSO or expressing chicken ovalbumin were harvested, washed and resuspended in sterile PBS, and subjected to five cycles of rapid freeze-thaw (alternating between 37° C. and dry ice/acetone) to generate a cell lysate. After brief centrifugation at 100×g, the soluble fraction in PBS was added to bone marrow derived DCs and left to incubate overnight for antigen phagocytosis in the presence of LPS (ThermoFisher Cat. 00-4976-93). DCs were subsequently washed three times to remove cell-free lysates and LPS and incubated in a 1:1 ratio with CFSE-labeled B6 splenic T cells (10^5 stimulators with 10^5 responders) as described above. The MLR was analyzed at day 5 by flow cytometry.

Row | Compound | histologic inflammation or immune infiltrates in skin, lung, gut, or liver [1] | splicing changes in mouse tumor cell lines [2] | in vivo T cell proliferation or activation in response to alloantigen (donor T cells) | CD8^+ T cell proliferation vs DMSO- or no lysate-pulsed control BMDCs [3]
1 | NS(=O)(=O)c1ccc(S(=O)(=O)Nc2cccc3c(Cl)c[nH]c23)cc1 [indisulam] | did not result in overt histologic inflammation | dramatic changes in both alternative and constitutive splicing | minimal impairment | more strongly promoted CD8^+ T cell proliferation
2 | CC(C)Oc1ccc(-c2c[nH]cc2CN(C)CCN)cc1 [MS-023] | did not result in overt histologic inflammation | dramatic changes in both alternative and constitutive splicing | minimal impairment | more strongly promoted CD8^+ T cell proliferation
